Assay results reported in patent US20260078135A1, “POLYCYCLIC QUINAZOLINES FOR INHIBITION OF ERBB2” (Enliven Inc., priority 2022, published 2026).

Legend:
Ba/F3 ERBB2 YVMA = Ba/F3 ERBB2 YVMA (Homo sapiens, UniProt P04626, DUP772-775, cells depend on it); test: Cell viability assay (CellTiter Glo), Ba/F3 cells engineered to express ERBB2 YVMA; assay type: cell-based, mouse; conditions: Ba/F3 cells expressing human ERBB2 YVMA mutant, 72 hours, read-out: Ba/F3 ERBB2 YVMA, IC50
Summary of the method: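 Ba/F3 cells (IL-3-independent via stable retroviral human ERBB2 YVMA) seeded 3000/well and given compound from about 10 μM to 0.51 nM in three-fold steps, DMSO ≤0.1%, 72 h at 37° C. Viability by CellTiter Glo luminescence, normalized to DMSO and media-only controls. Sigmoidal nonlinear fit.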

[1] = molecular target: T1, phosphorylated ERBB2 (pERBB2) (Homo sapiens, UniProt P04626); test: Detection of phosphorylated ERBB2 (pERBB2) by ELISA in BT-474 cells; assay type: cell-based; conditions: four hour incubation
T1 construct: endogenous in cells; host or cells: BT-474
Summary of the method: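 BT-474 cells were treated with compounds (fourfold dilutions, 10 μM to 0.01 nM final) for 4 h at 37 °C, then lysed. pERBB2 in lysates was quantified by ELISA with an HRP anti-phosphotyrosine detection antibody and TMB read at 450 nm; % relative activity was normalized to no-cell and 0.1% DMSO controls.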

[2] = molecular target: T2, phosphorylated EGFR (pEGFR) (Homo sapiens, UniProt P00533); test: Detection of phosphorylated EGFR (pEGFR) by AlphaLISA in EGF-stimulated A431 cells; assay type: cell-based; conditions: A431 cells (10% FBS), 4 hours incubation, EGF 30 ng/mL for 10 minutes
T2 construct: performed to measure phosphorylated EGFR levels using A431 cells (10% FBS); endogenous in cells; host or cells: A431
Summary of the method: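 A431 cells in 10% FBS were preincubated with compound for 4 h at 37 °C, then stimulated with 30 ng/mL EGF for 10 min and lysed. pEGFR read by AlphaLISA. % inhibition normalised to DMSO and staurosporine controls; IC50 from four-parameter curve fit.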

T2 sequence (P00533 25-1210): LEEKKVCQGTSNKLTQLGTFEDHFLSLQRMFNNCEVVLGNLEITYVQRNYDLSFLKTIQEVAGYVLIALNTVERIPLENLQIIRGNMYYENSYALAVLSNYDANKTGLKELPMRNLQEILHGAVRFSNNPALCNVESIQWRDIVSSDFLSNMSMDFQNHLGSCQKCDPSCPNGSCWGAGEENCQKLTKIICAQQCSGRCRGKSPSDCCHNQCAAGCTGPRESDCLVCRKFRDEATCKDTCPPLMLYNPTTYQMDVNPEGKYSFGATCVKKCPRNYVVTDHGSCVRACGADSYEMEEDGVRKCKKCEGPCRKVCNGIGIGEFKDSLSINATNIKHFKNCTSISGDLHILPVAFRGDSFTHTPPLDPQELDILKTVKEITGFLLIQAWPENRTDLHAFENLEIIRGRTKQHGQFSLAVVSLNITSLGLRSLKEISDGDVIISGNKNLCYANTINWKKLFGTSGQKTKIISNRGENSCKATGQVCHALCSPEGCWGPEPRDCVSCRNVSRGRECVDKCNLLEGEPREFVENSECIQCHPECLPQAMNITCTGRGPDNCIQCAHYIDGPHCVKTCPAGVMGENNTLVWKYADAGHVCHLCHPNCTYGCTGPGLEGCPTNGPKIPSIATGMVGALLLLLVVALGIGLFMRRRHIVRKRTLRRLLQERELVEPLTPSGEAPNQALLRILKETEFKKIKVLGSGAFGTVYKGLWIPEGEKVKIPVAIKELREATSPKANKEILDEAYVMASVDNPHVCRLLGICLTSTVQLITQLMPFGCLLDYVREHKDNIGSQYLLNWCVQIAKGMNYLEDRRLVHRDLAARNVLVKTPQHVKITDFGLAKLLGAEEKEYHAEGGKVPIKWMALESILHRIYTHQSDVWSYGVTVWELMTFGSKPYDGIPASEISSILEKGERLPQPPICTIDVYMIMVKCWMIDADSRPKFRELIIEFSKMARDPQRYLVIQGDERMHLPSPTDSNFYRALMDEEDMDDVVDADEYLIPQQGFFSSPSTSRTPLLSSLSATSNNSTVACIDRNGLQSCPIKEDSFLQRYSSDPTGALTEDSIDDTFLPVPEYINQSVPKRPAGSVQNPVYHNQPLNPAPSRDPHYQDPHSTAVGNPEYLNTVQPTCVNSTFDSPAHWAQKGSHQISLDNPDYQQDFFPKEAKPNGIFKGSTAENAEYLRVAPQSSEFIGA
T1 sequence (P04626 23-1255): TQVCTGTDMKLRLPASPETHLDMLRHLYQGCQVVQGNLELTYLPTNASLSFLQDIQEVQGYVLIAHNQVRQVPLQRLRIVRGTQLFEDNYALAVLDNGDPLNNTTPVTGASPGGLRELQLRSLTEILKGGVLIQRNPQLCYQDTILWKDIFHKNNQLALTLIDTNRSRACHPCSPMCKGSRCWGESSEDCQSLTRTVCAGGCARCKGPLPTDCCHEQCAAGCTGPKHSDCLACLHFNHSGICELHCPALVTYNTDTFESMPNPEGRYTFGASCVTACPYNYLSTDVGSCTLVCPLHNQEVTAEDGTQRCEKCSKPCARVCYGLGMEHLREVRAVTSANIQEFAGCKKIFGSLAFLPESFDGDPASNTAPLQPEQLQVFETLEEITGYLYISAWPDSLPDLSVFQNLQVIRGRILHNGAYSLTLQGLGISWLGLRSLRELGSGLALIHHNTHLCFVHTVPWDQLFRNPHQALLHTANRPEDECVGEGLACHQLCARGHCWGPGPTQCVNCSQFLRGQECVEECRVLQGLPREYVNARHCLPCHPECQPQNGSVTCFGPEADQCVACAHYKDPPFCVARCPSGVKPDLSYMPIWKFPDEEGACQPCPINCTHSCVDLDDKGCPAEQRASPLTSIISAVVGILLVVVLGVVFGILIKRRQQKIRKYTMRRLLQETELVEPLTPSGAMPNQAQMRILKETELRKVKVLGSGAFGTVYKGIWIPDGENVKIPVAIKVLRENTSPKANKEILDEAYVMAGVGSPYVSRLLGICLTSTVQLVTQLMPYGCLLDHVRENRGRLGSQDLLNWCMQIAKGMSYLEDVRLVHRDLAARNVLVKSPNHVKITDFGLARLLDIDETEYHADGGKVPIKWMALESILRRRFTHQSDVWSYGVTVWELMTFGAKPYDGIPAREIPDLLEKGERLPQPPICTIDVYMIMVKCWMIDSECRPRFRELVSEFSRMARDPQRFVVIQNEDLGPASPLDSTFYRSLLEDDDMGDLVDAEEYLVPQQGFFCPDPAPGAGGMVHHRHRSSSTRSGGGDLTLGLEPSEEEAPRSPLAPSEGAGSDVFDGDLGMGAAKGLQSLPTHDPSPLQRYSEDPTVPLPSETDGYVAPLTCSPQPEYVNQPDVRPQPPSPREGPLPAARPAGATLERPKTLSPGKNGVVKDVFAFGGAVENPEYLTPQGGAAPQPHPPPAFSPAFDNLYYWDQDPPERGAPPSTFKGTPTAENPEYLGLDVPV
Ba/F3 ERBB2 YVMA, sequence (P04626 with tags, fused parts or gaps DUP772-775): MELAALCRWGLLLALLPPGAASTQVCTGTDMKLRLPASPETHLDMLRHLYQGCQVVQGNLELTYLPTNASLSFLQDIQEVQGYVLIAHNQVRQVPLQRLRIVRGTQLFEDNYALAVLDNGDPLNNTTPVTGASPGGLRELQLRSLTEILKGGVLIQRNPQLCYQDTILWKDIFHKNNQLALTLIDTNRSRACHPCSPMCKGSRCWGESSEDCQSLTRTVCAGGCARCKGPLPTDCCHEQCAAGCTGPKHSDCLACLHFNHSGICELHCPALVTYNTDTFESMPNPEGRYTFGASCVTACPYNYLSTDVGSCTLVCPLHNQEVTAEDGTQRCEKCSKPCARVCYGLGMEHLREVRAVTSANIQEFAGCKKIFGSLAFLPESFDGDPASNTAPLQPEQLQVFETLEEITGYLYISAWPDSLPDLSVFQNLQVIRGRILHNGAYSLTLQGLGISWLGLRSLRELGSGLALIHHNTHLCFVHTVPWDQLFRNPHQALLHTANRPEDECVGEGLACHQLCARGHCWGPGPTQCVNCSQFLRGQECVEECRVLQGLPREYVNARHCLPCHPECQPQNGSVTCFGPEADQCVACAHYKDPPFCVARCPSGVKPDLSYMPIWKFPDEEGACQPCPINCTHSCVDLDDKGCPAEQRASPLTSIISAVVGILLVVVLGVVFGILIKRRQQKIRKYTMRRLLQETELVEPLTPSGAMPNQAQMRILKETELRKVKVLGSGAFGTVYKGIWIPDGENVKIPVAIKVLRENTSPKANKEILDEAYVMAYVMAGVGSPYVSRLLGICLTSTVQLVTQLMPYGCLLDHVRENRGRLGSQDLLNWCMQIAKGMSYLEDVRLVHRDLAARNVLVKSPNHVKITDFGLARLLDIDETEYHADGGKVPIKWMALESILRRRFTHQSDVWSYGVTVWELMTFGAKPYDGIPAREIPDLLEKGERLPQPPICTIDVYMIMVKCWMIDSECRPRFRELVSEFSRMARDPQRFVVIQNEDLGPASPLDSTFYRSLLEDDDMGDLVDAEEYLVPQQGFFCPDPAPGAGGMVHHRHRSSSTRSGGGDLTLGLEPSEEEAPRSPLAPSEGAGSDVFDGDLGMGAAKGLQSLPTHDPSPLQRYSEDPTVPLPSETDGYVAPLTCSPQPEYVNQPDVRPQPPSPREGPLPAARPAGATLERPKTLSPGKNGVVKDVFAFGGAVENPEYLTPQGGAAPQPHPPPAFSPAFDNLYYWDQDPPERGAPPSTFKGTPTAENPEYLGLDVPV

| SMILES | IC50 [1] | IC50 [2] | GI50 (Ba/F3 ERBB2 YVMA) |
| --- | --- | --- | --- |
| Cc1cc(Nc2ncnc3cc4c(nc23)N2CCNC[C@H]2CO4)ccc1Oc1ccn2ncnc2c1 [Compound 34, (S)—N-(4-([1,2,4]triazolo[1,5-a]pyridin-7-yloxy)-3-methylphenyl)-1,2,3,4,4a,5-hexahydropyrazino[1,2-d]pyrimido[4′,5′:5,6]pyrido[3,2-b][1,4]oxazin-11-amine] | 53.6 nM | > 10000 nM | 474 nM |
| Cc1cc(Nc2ncnc3cc4c(nc23)N2CCNC[C@@H]2CO4)ccc1Oc1ccn2ncnc2c1 [Compound 35, (R)—N-(4-([1,2,4]triazolo[1,5-a]pyridin-7-yloxy)-3-methylphenyl)-1,2,3,4,4a,5-hexahydropyrazino[1,2-d]pyrimido[4′,5′:5,6]pyrido[3,2-b][1,4]oxazin-11-amine] | 127 nM | > 10000 nM | > 500 nM |
| Cc1cc(Nc2ncnc3ccc4c(c23)OC[C@@H]2CN4CCN2C)ccc1Oc1ccn2ncnc2c1 [Compound 50, (3S)—N-(4-([1,2,4]triazolo[1,5-a]pyridin-7-yloxy)-3-methylphenyl)-4-methyl-3,4,5,6-tetrahydro-2H-3,7-methano[1,4,7]oxadiazonino[2,3-f]quinazolin-13-amine] | 195 nM | > 10000 nM | > 500 nM |
| Cc1cc(Nc2ncnc3ccc4c(c23)OC[C@H]2CN4CCN2)ccc1Oc1ccn2ncnc2c1 [Compound 51, (3R)—N-(4-([1,2,4]triazolo[1,5-a]pyridin-7-yloxy)-3-methylphenyl)-3,4,5,6-tetrahydro-2H-3,7-methano[1,4,7]oxadiazonino[2,3-f]quinazolin-13-amine] | 128 nM | > 10000 nM | > 500 nM |
| Cc1cc(Nc2ncnc3ccc4c(c23)OC[C@H]2CN4CCN2C)ccc1Oc1ccn2ncnc2c1 [Compound 52, (3R)—N-(4-([1,2,4]triazolo[1,5-a]pyridin-7-yloxy)-3-methylphenyl)-4-methyl-3,4,5,6-tetrahydro-2H-3,7-methano[1,4,7]oxadiazonino[2,3-f]quinazolin-13-amine] | 219 nM | > 10000 nM | > 500 nM |
| CN(C)C/C=C/C(=O)N1CCN2C[C@@H]1COc1c2ccc2ncnc(Nc3ccc(Oc4ccn5ncnc5c4)cc3F)c12 [Compound 78, (E)-1-((3R)-13-((4-([1,2,4]triazolo[1,5-a]pyridin-7-yloxy)-2-fluorophenyl)amino)-2,3,5,6-tetrahydro-4H-3,7-methano[1,4,7]oxadiazonino[2,3-f]quinazolin-4-yl)-4-(dimethylamino)but-2-en-1-one] | 8.87 nM | 341 nM | 10.9 nM |
| Cc1cc(Nc2ncnc3cnc4c(c23)OC[C@H]2CN4CCN2C(=O)/C=C/CN(C)C)c(F)cc1Oc1ccn2ncnc2c1 [Compound 83, (E)-1-((3R)-13-((4-([1,2,4]triazolo[1,5-a]pyridin-7-yloxy)-2-fluoro-5-methylphenyl)amino)-2,3,5,6-tetrahydro-4H-3,7-methanopyrimido[5′,4′:4,5]pyrido[3,2-b][1,4,7]oxadiazonin-4-yl)-4-(dimethylamino)but-2-en-1-one] | 17.3 nM | 344 nM | 14 nM |
| Cc1ccc(Oc2ccc(Nc3ncnc4ccc5c(c34)OC[C@H]3CN5CCN3C(=O)/C=C/CN(C)C)cc2C)cn1 [Compound 84, (E)-4-(dimethylamino)-1-((3R)-13-((3-methyl-4-((6-methylpyridin-3-yl)oxy)phenyl)amino)-2,3,5,6-tetrahydro-4H-3,7-methano[1,4,7]oxadiazonino[2,3-f]quinazolin-4-yl)but-2-en-1-one] | 14.6 nM | 60.1 nM | 2.95 nM |
| Cc1cc(Nc2ncnc3ccc4c(c23)OC[C@H]2COCCN42)ccc1Oc1ccn2ncnc2c1 [Compound 85, (R)—N-(4-([1,2,4]triazolo[1,5-a]pyridin-7-yloxy)-3-methylphenyl)-6a,7,9,10-tetrahydro-6H-[1,4]oxazino[4′,3′:4,5][1,4]oxazino[2,3-f]quinazolin-4-amine] | 17.2 nM | > 10000 nM | 181 nM |
| Cc1cc(Nc2ncnc3ccc4c(c23)OC[C@H]2CN4CCN2C(=O)/C=C/[C@H](C)N(C)C)ccc1Oc1ccn2ncnc2c1 [Compound 89, (4S,E)-1-((3R)-13-((4-([1,2,4]triazolo[1,5-a]pyridin-7-yloxy)-3-methylphenyl)amino)-2,3,5,6-tetrahydro-4H-3,7-methano[1,4,7]oxadiazonino[2,3-f]quinazolin-4-yl)-4-(dimethylamino)pent-2-en-1-one] | 172 nM | > 10000 nM | 264 nM |

Further compounds by falling IC50 [1], results first:

| IC50 [1] | IC50 [2] | SMILES | GI50 (Ba/F3 ERBB2 YVMA) |
| --- | --- | --- | --- |
| 466 nM | > 10000 nM | Cc1cc(Nc2ncnc3ccc4c(c23)OC[C@@H]2CN4CCN2)ccc1Oc1ccn2ncnc2c1 [Compound 49, (3S)—N-(4-([1,2,4]triazolo[1,5-a]pyridin-7-yloxy)-3-methylphenyl)-3,4,5,6-tetrahydro-2H-3,7-methano[1,4,7]oxadiazonino[2,3-f]quinazolin-13-amine] | > 500 nM |
| 50.4 nM | > 10000 nM | Cc1cc(Nc2ncnc3ccc4c(c23)OC[C@H]2CN4CCN2C(=O)/C=C/[C@@H](C)N(C)C)c(F)cc1Oc1ccn2ncnc2c1 [Compound 90, (4R,E)-1-((3R)-13-((4-([1,2,4]triazolo[1,5-a]pyridin-7-yloxy)-2-fluoro-5-methylphenyl)amino)-2,3,5,6-tetrahydro-4H-3,7-methano[1,4,7]oxadiazonino[2,3-f]quinazolin-4-yl)-4-(dimethylamino)pent-2-en-1-one] | 28.7 nM |
| 44.3 nM | 2820 nM | Cc1cc(Nc2ncnc3ccc4c(c23)OC[C@H]2CN4CCN2C(=O)/C=C/[C@@H](C)N(C)C)ccc1Oc1ccn2ncnc2c1 [Compound 88, (4R,E)-1-((3R)-13-((4-([1,2,4]triazolo[1,5-a]pyridin-7-yloxy)-3-methylphenyl)amino)-2,3,5,6-tetrahydro-4H-3,7-methano[1,4,7]oxadiazonino[2,3-f]quinazolin-4-yl)-4-(dimethylamino)pent-2-en-1-one formic acid] | 60.3 nM |
| 22.8 nM | 701 nM | Cc1cc(Nc2ncnc3ccc4c(c23)OC[C@H]2CN4CCN2C(=O)/C=C/C2CN(C)C2)ccc1Oc1ccn2ncnc2c1 [Compound 80, (E)-1-((3R)-13-((4-([1,2,4]triazolo[1,5-a]pyridin-7-yloxy)-3-methylphenyl)amino)-2,3,5,6-tetrahydro-4H-3,7-methano[1,4,7]oxadiazonino[2,3-f]quinazolin-4-yl)-3-(1-methylazetidin-3-yl)prop-2-en-1-one] | 77.2 nM |
| 17.2 nM | 785 nM | Cc1cc(Nc2ncnc3ccc4c(c23)OC[C@H]2CN4CCN2C(=O)/C=C/C2(F)CN(C)C2)ccc1Oc1ccn2ncnc2c1 [Compound 81, (E)-1-((3R)-13-((4-([1,2,4]triazolo[1,5-a]pyridin-7-yloxy)-3-methylphenyl)amino)-2,3,5,6-tetrahydro-4H-3,7-methano[1,4,7]oxadiazonino[2,3-f]quinazolin-4-yl)-3-(3-fluoro-1-methylazetidin-3-yl)prop-2-en-1-one] | 8.51 nM |
| 14.2 nM | 84.4 nM | Cc1cc(Nc2ncnc3ccc4c(c23)OC[C@H]2CN4CCN2C(=O)/C=C/CN(C)C)ccc1Oc1ccc2c(c1)nnn2C [Compound 79, (E)-4-(dimethylamino)-1-((3R)-13-((3-methyl-4-((1-methyl-1H-benzo[d][1,2,3]triazol-5-yl)oxy)phenyl)amino)-2,3,5,6-tetrahydro-4H-3,7-methano[1,4,7]oxadiazonino[2,3-f]quinazolin-4-yl)but-2-en-1-one] | 6.04 nM |
| 7.9 nM | 199 nM | Cc1cc(Nc2ncnc3cnc4c(c23)OC[C@H]2CN4CCN2C(=O)/C=C/CN(C)C)ccc1Oc1ccn2ncnc2c1 [Compound 82, (E)-1-((3R)-13-((4-([1,2,4]triazolo[1,5-a]pyridin-7-yloxy)-3-methylphenyl)amino)-2,3,5,6-tetrahydro-4H-3,7-methanopyrimido[5′,4′:4,5]pyrido[3,2-b][1,4,7]oxadiazonin-4-yl)-4-(dimethylamino)but-2-en-1-one] | 6.9 nM |
| 6.51 nM | 460 nM | CN(C)C/C=C/C(=O)N1CCN2C[C@@H]1COc1c2ccc2ncnc(Nc3ccc(Oc4ccn5ncnc5c4)cc3)c12 [Compound 77, (E)-1-((3R)-13-((4-([1,2,4]triazolo[1,5-a]pyridin-7-yloxy)phenyl)amino)-2,3,5,6-tetrahydro-4H-3,7-methano[1,4,7]oxadiazonino[2,3-f]quinazolin-4-yl)-4-(dimethylamino)but-2-en-1-one] | 14.4 nM |
| 5.66 nM | 381 nM | CN(C)C/C=C/C(=O)N1CCN2C[C@@H]1COc1c2ccc2ncnc(Nc3ccc(Oc4ccn5ncnc5c4)c(F)c3)c12 [Compound 76, (E)-1-((3R)-13-((4-([1,2,4]triazolo[1,5-a]pyridin-7-yloxy)-3-fluorophenyl)amino)-2,3,5,6-tetrahydro-4H-3,7-methano[1,4,7]oxadiazonino[2,3-f]quinazolin-4-yl)-4-(dimethylamino)but-2-en-1-one] | 5.86 nM |
